Reference: patent US9493435B2, “IRE-1α inhibitors” (MannKing Corporation, priority 2009, dated 2016)
Counter-ions that a name gives are not always drawn.

Experiments:
[1] = target: human IRE-1α (GST-IRE-1α) (Homo sapiens (Human), UniProt O75460); assay: IRE-1α assay (cleavage of mini-XBP-1 mRNA stem-loop substrate); format: biochemical; details: average IC50 for inhibition of IRE-1α in vitro
Protocol: A fusion protein comprising glutathione S transferase (GST) and human IRE-1α (GST-IRE-1α) obtained from a 500 ml baculovirus-infected insect cell culture can be used to measure IRE-1α activity in vitro. Five μl of a reaction mixture comprising 1× reaction buffer (5× reaction buffer is 100 mM Hepes pH 7.5, 250 mM KOAc, 2.5 mM MgCl2), 3 mM DTT, and 0.4% polyethylene glycol water is added to each well of 384 well plates. Twenty-five nanoliters of a 1 mM test compound solution are added to test wells. […] Negative control wells contain only reaction mixture and test compound. After spinning the plates at 1200 rpm for 30 seconds, 3 μl of an IRE-1α human mini-XBP-1 mRNA stem-loop substrate [NT] ID NO:1), labeled with the fluorescent dye Cy5 at the [NT] end, are added to each well of a control plate. The plates are again spun at 1200 rpm for 30 seconds. […] The plates are covered with lids and incubated for one hour at 30° C. The plates are then transferred to an […] microplate reader. Data is analyzed using data analysis software, and the percent activity of IRE-1α is calculated.

[2] = system: IRE-1α-mediated XBP-1 splicing in human myeloma MM.1s cells; assay: Cellular XBP-1 splicing assay in myeloma cells (RT-PCR); format: cell-based; details: Homo sapiens, MM1.S; average EC50, endogenous XBP-1 splicing in myeloma cells, DTT stress
Protocol: After an additional 45 minutes (2 hours total) with compound and DTT, the cells are harvested with TRIZOL® (a mono-phasic solution of phenol and guanidine isothiocyanate), and total RNA is prepared as directed by the manufacturer (Invitrogen). Human XBP-1 is amplified by RT-PCR with the following primers, which flank the 26 base unconventional intron excised by IRE-1α:
RT-PCR of unstressed (U) cells then generates the upper band. When cells are stressed (S) with the endoplasmic reticulum (ER) stressing agent DTT, IRE-1α is activated due to accumulating unfolded protein and the resulting RT-PCR product is 26 base pairs shorter.
Compounds which pass specificity assays are assayed for cellular EC50 using endogenous XBP-1 splicing in myeloma cells. XBP-1 is regulated through the excision of a 26 nucleotide intron from the XBP-1 mRNA by the highly specific endoribonuclease activity of IRE-1α. […] This splicing event is used to measure IRE-1α activity on XBP-1 mRNA in cells and tissues.
Briefly, compounds are incubated in the presence or absence of an ER stress agent (e.g., DTT), and the ratio of XBP-1u (unspliced) to XBP-1s (spliced) is quantified by RT-PCR.

Sequence of human IRE-1α (GST-IRE-1α) (O75460 19-977): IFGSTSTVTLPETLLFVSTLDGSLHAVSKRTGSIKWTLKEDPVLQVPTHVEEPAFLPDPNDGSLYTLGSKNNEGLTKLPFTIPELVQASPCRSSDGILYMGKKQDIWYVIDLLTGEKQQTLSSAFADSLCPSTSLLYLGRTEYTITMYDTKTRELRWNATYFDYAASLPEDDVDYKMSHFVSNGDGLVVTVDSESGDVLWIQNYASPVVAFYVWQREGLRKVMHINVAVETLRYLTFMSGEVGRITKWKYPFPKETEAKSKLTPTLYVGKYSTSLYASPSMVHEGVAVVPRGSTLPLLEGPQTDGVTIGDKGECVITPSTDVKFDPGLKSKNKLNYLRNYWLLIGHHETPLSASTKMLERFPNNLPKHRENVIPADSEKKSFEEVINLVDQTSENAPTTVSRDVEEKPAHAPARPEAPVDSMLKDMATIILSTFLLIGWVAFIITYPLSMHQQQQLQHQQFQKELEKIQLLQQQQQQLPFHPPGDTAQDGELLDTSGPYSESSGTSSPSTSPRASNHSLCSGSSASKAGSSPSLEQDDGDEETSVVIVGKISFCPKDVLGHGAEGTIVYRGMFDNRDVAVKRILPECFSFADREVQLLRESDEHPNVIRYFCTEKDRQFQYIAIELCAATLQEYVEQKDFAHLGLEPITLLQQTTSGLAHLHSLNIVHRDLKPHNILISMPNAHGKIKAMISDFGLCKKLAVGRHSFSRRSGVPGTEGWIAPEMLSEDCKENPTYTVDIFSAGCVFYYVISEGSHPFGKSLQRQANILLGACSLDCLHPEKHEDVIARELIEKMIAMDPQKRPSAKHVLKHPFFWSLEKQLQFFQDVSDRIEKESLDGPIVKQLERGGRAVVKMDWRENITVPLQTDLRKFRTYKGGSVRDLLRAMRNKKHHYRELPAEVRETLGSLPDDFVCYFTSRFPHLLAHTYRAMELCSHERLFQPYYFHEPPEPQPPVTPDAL

| Structure (SMILES) | IC50 [1] [nM] | EC50 [2] [µM] |
| --- | --- | --- |
| CCN(CC)C(=O)c1ccc(-c2ccc3c(C=O)c(O)ccc3c2)cc1 [Compound 2] | < 1000 | < 10 |
| O=Cc1c(O)ccc2cc(-c3ccc(C(=O)N4CCCC4)cc3)ccc12 [Compound 3] | < 1000 | < 10 |
| CCN(CC)C(=O)c1cccc(-c2ccc3c(C=O)c(O)ccc3c2)n1 [Compound 7] | < 1000 | 10 |
| CNC(=O)c1ccc(-c2ccc3c(C=O)c(O)ccc3c2)cc1 [Compound 9] | > 1000 | > 10 |
| COCCNC(=O)c1ccc(-c2ccc3c(C=O)c(O)ccc3c2)cc1 [Compound 10] | < 1000 | < 10 |
| CNC(=O)c1ccc(-c2ccc3c(C=O)c(O)ccc3c2)s1 [Compound 11] | < 1000 | 10 |
| CN(C)C(=O)c1ccc(-c2ccc3c(C=O)c(O)ccc3c2)s1 [Compound 12] | < 1000 | 10 |
| COCCNC(=O)c1ccc(-c2ccc3c(C=O)c(O)ccc3c2)s1 [Compound 15] | < 1000 | > 10 |
| COc1ccc(CNC(=O)c2cccc(-c3ccc4c(C=O)c(O)ccc4c3)n2)cc1 [Compound 17] | < 1000 | > 10 |
| CCOC(=O)/C=C/c1ccc2c(C=O)c(O)ccc2c1 [Compound 22] | < 1000 | < 10 |
| O=Cc1c(O)ccc2cc(/C=C/C(=O)O)ccc12 [Compound 23] | < 1000 | 10 |
| O=Cc1c(O)ccc2cc(-c3cc(C(=O)N4CCOCC4)ccc3Cl)ccc12 [Compound 24] | > 1000 | > 10 |
| CN(C)C(=O)c1ccc(Cl)c(-c2ccc3c(C=O)c(O)ccc3c2)c1 [Compound 26] | > 1000 | > 10 |
| CN1CCN(C(=O)c2ccc(Cl)c(-c3ccc4c(C=O)c(O)ccc4c3)c2)CC1 [Compound 27] | < 1000 | > 10 |
| CN(C)C(=O)c1ccc(-c2ccc3c(C=O)c(O)ccc3c2)c(Cl)c1 [Compound 28] | > 1000 | > 10 |
| O=Cc1c(O)ccc2cc(-c3ccc(C(=O)N4CCOCC4)cc3Cl)ccc12 [Compound 29] | < 1000 | > 10 |

| Structure (SMILES) | IC50 [1] [nM] | EC50 [2] [µM] |
| --- | --- | --- |
| CN1CCN(C(=O)c2ccc(Cl)c(-c3ccc4c(C=O)c(O)ccc4c3)c2)CC1 [Compound 30] | < 1000 |  |
| CN1CCC(NC(=O)c2ccc(-c3ccc4c(C=O)c(O)ccc4c3)s2)CC1 [Compound 38] | < 1000 | < 10 |
| O=Cc1c(O)ccc2cc(CCC(=O)O)ccc12 [Compound 39] | < 1000 | > 10 |
| CCOC(=O)CCc1ccc2c(C=O)c(O)ccc2c1 [Compound 40] | > 1000 | > 10 |
| NCCOCCOCCNC(=O)c1ccc(-c2ccc3c(C=O)c(O)ccc3c2)s1 [Compound 45] | < 1000 | < 10 |
| O=Cc1c(O)ccc2cc(-c3ccc(C(=O)NC4CCCNC4)cc3)ccc12 (stereo not drawn) [Compound 49] | < 100 | < 10 |
| CN1CCN(C(=O)c2ccc(-c3ccc4c(C=O)c(O)ccc4c3)cn2)CC1 [Compound 50] | < 1000 | < 10 |
| CN(C)C(=O)CCc1ccc2c(C=O)c(O)ccc2c1 [Compound 51] | < 1000 | < 10 |
| O=Cc1c(O)ccc2cc(CCC(=O)N3CCOCC3)ccc12 [Compound 52] | < 1000 | < 10 |
| O=Cc1c(O)ccc2cc(-c3ccc(C(=O)N4CCNCC4)s3)ccc12 [Compound 53] | < 1000 | < 10 |
| O=Cc1c(O)ccc2cc(N3CCOCC3)ccc12 [Compound 54] | > 1000 | > 10 |
| NCCN1CCN(C(=O)c2ccc(-c3ccc4c(C=O)c(O)ccc4c3)s2)CC1 [Compound 55] | < 1000 | < 10 |
| CN1CCN(C(=O)c2ccc(-c3ccc4c(C=O)c(O)ccc4c3)nc2)CC1 [Compound 57] | < 1000 | < 10 |
| CN1CCN(c2ccc3c(C=O)c(O)ccc3c2)CC1 [Compound 58, 2-Hydroxy-6-(4-methyl-piperazin-1-yl)-naphthalene-1-carbaldehyde hydrochloride] | > 1000 | < 10 |
| CN(C1CCCN(c2ccc3c(C=O)c(O)ccc3c2)C1)S(C)(=O)=O (stereo not drawn) [Compound 123] | < 1000 |  |
| CS(=O)(=O)NC1CCN(c2ccc3c(C=O)c(O)ccc3c2)CC1 [Compound 175] | > 1000 |  |

The next lines start with the values.

| IC50 [1] [nM] | EC50 [2] [µM] | Structure (SMILES) |
| --- | --- | --- |
| < 100 | < 10 | O=Cc1c(O)ccc2cc(-c3cccc(C(=O)N4CCCC4)c3)ccc12 [Compound 1] |
| < 100 | < 10 | COCCNC(=O)c1cccc(-c2ccc3c(C=O)c(O)ccc3c2)c1 [Compound 4] |
| < 100 | < 10 | CN1CCN(C(=O)c2ccc(-c3ccc4c(C=O)c(O)ccc4c3)cc2)CC1 [Compound 5] |
| < 100 | > 10 | COCCNC(=O)c1cccc(-c2ccc3c(C=O)c(O)ccc3c2)n1 [Compound 6] |
| < 100 | < 10 | CNC(=O)c1cccc(-c2ccc3c(C=O)c(O)ccc3c2)c1 [Compound 8] |
| < 100 | > 10 | CNC(=O)c1cccc(-c2ccc3c(C=O)c(O)ccc3c2)n1 [Compound 13] |
| < 100 | < 10 | O=Cc1c(O)ccc2cc(-c3cccc(C(=O)N4CCCC4)n3)ccc12 [Compound 14] |
| < 100 | 10 | CCCNC(=O)c1cccc(-c2ccc3c(C=O)c(O)ccc3c2)n1 [Compound 16] |
| < 100 | > 10 | Cc1cc(C(=O)N2CCOCC2)sc1-c1ccc2c(C=O)c(O)ccc2c1 [Compound 25] |
| < 100 | > 10 | CN(C)C(=O)/C=C/c1ccc2c(C=O)c(O)ccc2c1 [Compound 31] |
| < 100 | < 10 | O=Cc1c(O)ccc2cc(/C=C/C(=O)N3CCOCC3)ccc12 [Compound 32] |
| < 100 | < 10 | Cc1cc(C(=O)N(C)C)sc1-c1ccc2c(C=O)c(O)ccc2c1 [Compound 33] |
| < 100 | < 10 | Cc1cc(C(=O)N2CCN(C)CC2)sc1-c1ccc2c(C=O)c(O)ccc2c1 [Compound 34] |
| < 100 | < 10 | CN(C)C(=O)c1ccc(-c2ccc3c(C=O)c(O)ccc3c2)o1 [Compound 35] |
| < 100 | < 10 | O=Cc1c(O)ccc2cc(-c3ccc(C(=O)NCCN4CCOCC4)s3)ccc12 [Compound 36] |
| < 100 | < 10 | O=Cc1c(O)ccc2cc(-c3ccc(C(=O)NCCCN4CCOCC4)s3)ccc12 [Compound 37] |
| < 100 | < 10 | O=Cc1c(O)ccc2cc(-c3ccc(C(=O)NCC4CCCCN4)s3)ccc12 (stereo not drawn) [Compound 41] |
| < 100 | < 10 | O=Cc1c(O)ccc2cc(-c3ccc(C(=O)NCC4CCCNC4)s3)ccc12 (stereo not drawn) [Compound 42] |
| < 100 | < 10 | O=Cc1c(O)ccc2cc(-c3ccc(C(=O)NCC4CCNCC4)s3)ccc12 [Compound 43] |
| < 100 | < 10 | O=Cc1c(O)ccc2cc(-c3ccc(C(=O)NC4CCNCC4)s3)ccc12 [Compound 46] |
| < 100 | < 10 | O=Cc1c(O)ccc2cc(-c3ccc(C(=O)NC4CCCNC4)s3)ccc12 (stereo not drawn) [Compound 47] |
| < 100 | < 10 | O=Cc1c(O)ccc2cc(-c3ccc(C(=O)NC4CCNCC4)cc3)ccc12 [Compound 48] |
